The values below are quoted from earlier work in patent US12553008B2, “Extracting and refining plant cuticular waxes from aqueous dispersion using temperature and pH adjustment” (JENA TRADING APS, priority 2019, dated 2026).

Broadly, the pKa is the pH at which an ionisable group is half protonated.

Like-named read-outs stand apart in the source and are kept apart here.

Assay in data set [1]: not given
This is another data set of the same source.

With `CCCCCCCCCCCC(=O)O` [Lauric (C12 saturated), Lauric], the pKa is 5.3. The “Solubility of free fatty acids in water” value in data set [1] (at 30° C.) was 63 mg/L at 30 °C. The “Solubility of free fatty acids in water” value in data set [1] (at 45° C.) was 72 mg/L at 45 °C.

Take `CCCCCCCCCCCCCC(=O)O` [Myristic (C14 saturated), Myristic]: the pKa is on record as 4.9. Besides, the “Solubility of free fatty acids in water” value in data set [1] (at 30° C.) was 24 mg/L at 30 °C. Also, the “Solubility of free fatty acids in water” value in data set [1] (at 60° C.) is 33 mg/L at 60 °C.

For the compound `CCCCCCCC/C=C\CCCCCCCC(=O)O` [Oleic (C18 mono-unsaturated), oleic acid], the “Solubility of free fatty acids in water” value in data set [1] (in words, no temperature printed) was “Insoluble”; in data set [1] (in words, no temperature printed, listed as oleic) it was “very low”.

In the case of `CCCCCCCCCCCCCCCC(=O)O` [Palmitic (C16 saturated), Palmitic], the pKa is given as 4.75.

As to `CCCCCCCCCCCCCCCCCC(=O)O` [Stearic (C18 saturated), Stearic], the pKa is listed as 4.8-4.9.
